Laboratory results: ChEMBL document CHEMBL5728314, “Chiral N-acyl-5,6,7(8-substituted)-tetrahydro-[1,2,4]triazolo[4,3-a]pyrazines as selective NK-3 receptor antagonists, pharmaceutical composition, methods for use in NK-3 receptor mediated disorders and chiral synthesis thereof” (2021)

Target: T1, Neuromedin-K receptor (Homo sapiens, UniProt P29371)
T1 sequence (P29371 whole entry): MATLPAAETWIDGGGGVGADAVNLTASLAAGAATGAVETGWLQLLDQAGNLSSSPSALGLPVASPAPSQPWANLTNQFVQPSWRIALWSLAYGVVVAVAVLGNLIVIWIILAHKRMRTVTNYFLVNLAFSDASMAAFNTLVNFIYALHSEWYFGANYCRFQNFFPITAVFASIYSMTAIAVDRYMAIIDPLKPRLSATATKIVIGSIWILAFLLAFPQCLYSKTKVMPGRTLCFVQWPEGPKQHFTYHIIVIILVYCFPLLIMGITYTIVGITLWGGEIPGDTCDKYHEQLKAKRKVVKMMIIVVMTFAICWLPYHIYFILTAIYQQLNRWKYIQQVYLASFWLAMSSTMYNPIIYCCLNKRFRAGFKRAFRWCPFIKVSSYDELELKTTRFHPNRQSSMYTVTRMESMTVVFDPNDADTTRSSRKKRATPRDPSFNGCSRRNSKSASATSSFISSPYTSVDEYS
Test: Binding Competition Assay: NK3: The ability of compounds of the invention to inhibit the binding of the NK-3 receptor selective antagonist 3H-SB222200 was assessed by an in vitro radioligand binding assay. Membranes were prepared from Chinese hamster ovary recombinant cells stably expressing the human NK3 receptor. The membranes were incubated with 5 nM 3H-SB222200 (ARC) in a HEPES 25 mM/NaCl 0.1M/CaCl2 1 mM/MgCl2 5 Mm/BSA 0.5%/Saponin 10 μg/ml buffer at pH 7.4 and various concentrations of compounds of the invention. The amount of 3H-SB222200 bound to the receptor was determined after filtration by the quantification of membrane associated radioactivity using the TopCount-NXT reader (Packard).

Ki: 51 nM
SMILES: Cc1coc(-c2nnc3n2CCN[C@@H]3C)n1
